Data reported in patent US20250129103A1, “METHODS FOR TREATMENT OF CANCER” (Frontier Medicines Corporation, priority 2022, published 2025).

Key:
[1] = biological target: KRAS G12C (GMPPNP-loaded) and cRAF (Ras-binding domain) interaction (Homo sapiens (Human), UniProt P01116, C118S/C51S/C80L/G12C); assay: Inhibition of KRAS G12C and cRAF binding (AlphaScreen); settings: KRAS G12C loaded with GMPPNP, cRaf RBD, 2 hours preincubation; read-out: Raf-1 RBD K-Ras IC50
Summary of the method: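 AlphaScreen readout (680 nm excitation, 570 nm emission) of RBD binding after a 60-90 min bead step at room temperature. This step follows 2 h compound exposure of GMPPNP-preloaded KRAS G12C in Hepes pH 7.4 buffer with MgCl2 and 10 μM GMPPNP.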

[2] = biological target: KRAS G12C (GMPPNP-loaded) and PI3Ka (Ras-binding domain) interaction (Homo sapiens (Human), UniProt P01116, C118S/C51S/C80L/G12C); assay: Inhibition of KRAS G12C and PI3Ka binding (AlphaScreen); settings: KRAS G12C loaded with GMPPNP, PI3Ka RBD, 2 hours preincubation; read-out: PI3K RBD K-Ras IC50
Method: The AlphaScreen technology was used to determine IC50S for compound inhibition of KRAS G12C (present as the Cys-light (C51S, C80L and C118S), truncated version comprising amino acids 1-169) and PI3Ka interaction. Compounds were diluted in 100% DMSO and each compound concentration was spotted at 200 nl/well onto low volume, white 384 well plates. The KRAS G12C contained a biotin-AviTag and the PI3Ka, as Ras-binding domain (amino acids 157-300, RBD), was His-tagged. KRAS G12C was preloaded with the GTP analogue Guanosine 5′-[β,γ-imido]triphosphate (GMPPNP). The KRAS G12C was diluted in 25 mM Hepes, pH 7.4, 150 mM NaCl, 5 mM MgCl2, 0.01% TritonX-100 and 10 μM GMPPNP and added at 10 ul/well to compound-spotted plates resulting in a DMSO concentration of 2%. Plates were incubated for 2 hours. A mixture of RBD and the AlphaScreen streptavidin donor and nickel chelate acceptor beads diluted in 25 mM Hepes, pH 7.4, 150 mM NaCl, 5 mM MgCl2, 0.01% TritonX-100 and 2% DMSO was then added at 10 ul/well and incubated for 60-90 minutes before the samples were read for emission at 570 nm after excitation of the donor beads at 680 nm. All incubations were performed at room temperature. The final top compound concentration was 50 μM with 1:3 titrations for 10-point dose response curves. Final assay conditions were 1.5 nM KRAS G12C, 100 nM RBD, 1.25 ug/ml of AlphaScreen donor beads and 10 μg/ml AlphaLISA acceptor beads. IC50s were determined using nonlinear regression fit of [inhibitor] vs. response (4 parameters). […]

[3] = Determination of logD (1-octanol / phosphate buffer pH 7.4); format: physicochemical; settings: pH 7.4, 1-octanol/phosphate buffer
Summary of the method: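 Each phase analysed by LCMS after 1 h shaking at 800 rpm and centrifugation, room temperature. Phases were mutually saturated 1-octanol and 100 mM phosphate buffer at pH 7.4. LogD derived from the phase concentrations.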

N#CC[C@H]1CN(c2nc(OC[C@@]34CCCN3C[C@H](F)C4)nc3c(F)c(-c4cccc5cccc(Cl)c45)ncc23)CCN1C(=O)/C=C/CN1C[C@H]2C[C@@H]1CO2 [Compound 181]
IC50 [1]: < 10 nM
IC50 [2]: < 10 nM

C[C@@H]1CN(C/C=C/C(=O)N2CCN(c3nc(OC[C@@]45CCCN4C[C@H](F)C5)nc4c(F)c(-c5cccc6ccc(F)c(Cl)c56)ncc34)C[C@@H]2CC#N)C[C@H](C)O1 [Example 73, 2-((S)-4-(7-(8-chloro-7-fluoronaphthalen-1-yl)-8-fluoro-2-(((2R,7aS)-2-fluorotetrahydro-1H-pyrrolizin-7a(5H)-yl)methoxy)pyrido[4,3-d]pyrimidin-4-yl)-1-((E)-4-((2S,6R)-2,6-dimethylmorpholino)but-2-enoyl)piperazin-2-yl)acetonitrile]
IC50 [1]: < 10 nM
IC50 [2]: < 10 nM

2-((S)-4-(7-(8-chloro-7-fluoronaphthalen-1-yl)-8-fluoro-2-(((2R,7aS)-2-fluorotetrahydro-1H-pyrrolizin-7a(5H)-yl)methoxy)pyrido[4,3-d]pyrimidin-4-yl)-1-((E)-4-((3aR,6aS)-tetrahydro-1H-furo[3,4-c]pyrrol-5(3H)-yl)but-2-enoyl)piperazin-2-yl)acetonitrile [Example 84]
IC50 [1]: < 10 nM
IC50 [2]: < 10 nM
Log D, pH 7.4 [3]: 2.97

N#CC[C@H]1CN(c2nc(OC[C@@]34CCCN3C[C@H](F)C4)nc3c(F)c(-c4cccc5cccc(Cl)c45)ncc23)CCN1C(=O)/C=C/CN1CCSCC1 [Compound 97, 2-((S)-4-(7-(8-chloronaphthalen-1-yl)-8-fluoro-2-(((2R,7aS)-2-fluorohexahydro-1H-pyrrolizin-7a-yl)methoxy)pyrido[4,3-d]pyrimidin-4-yl)-1-((E)-4-thiomorpholinobut-2-enoyl)piperazin-2-yl)acetonitrile]
IC50 [1]: < 10 nM
IC50 [2]: < 10 nM

CC1(C)CN(C/C=C/C(=O)N2CCN(c3nc(OCC45CCCN4CCC5)nc4c3CCN(c3cccc5cccc(Cl)c35)C4)C[C@@H]2CC#N)CCO1 [Compound 165]
IC50 [1]: < 10 nM
IC50 [2]: < 10 nM

N#CC[C@H]1CN(c2nc(OC[C@@]34CCCN3C[C@H](F)C4)nc3c(F)c(-c4cccc(Cl)c4C4CC4)ncc23)CCN1C(=O)/C=C/CN1[C@@H]2CC[C@H]1COC2 [Compound 100, 2-((S)-1-((E)-4-((1R,5S)-3-oxa-8-azabicyclo[3.2.1]octan-8-yl)but-2-enoyl)-4-(7-(3-chloro-2-cyclopropylphenyl)-8-fluoro-2-(((2R,7aS)-2-fluorotetrahydro-1H-pyrrolizin-7a(5H)-yl)methoxy)pyrido[4,3-d]pyrimidin-4-yl)piperazin-2-yl)acetonitrile]
IC50 [1]: < 10 nM
IC50 [2]: < 10 nM

C[C@H]1CN(C/C=C/C(=O)N2CCN(c3nc(OC[C@@]45CCCN4C[C@H](F)C5)nc4c(F)c(-c5cccc6ccc(F)c(Cl)c56)ncc34)C[C@@H]2CC#N)C[C@H](C)O1 [Example 75, 2-((S)-4-(7-(8-chloro-7-fluoronaphthalen-1-yl)-8-fluoro-2-(((2R,7aS)-2-fluorotetrahydro-1H-pyrrolizin-7a(5H)-yl)methoxy)pyrido[4,3-d]pyrimidin-4-yl)-1-((E)-4-((2S,6S)-2,6-dimethylmorpholino)but-2-enoyl)piperazin-2-yl)acetonitrile]
IC50 [1]: < 10 nM
IC50 [2]: < 10 nM

N#CC[C@H]1CN(c2nc(OC[C@@]34CCCN3C[C@H](F)C4)nc3c(F)c(-c4cccc5ccc(F)c(Cl)c45)ncc23)CCN1C(=O)/C=C/CN1C2COCC1C2 [Example 76, 2-((2S)-1-((E)-4-(3-oxa-6-azabicyclo[3.1.1]heptan-6-yl)but-2-enoyl)-4-(7-(8-chloro-7-fluoronaphthalen-1-yl)-8-fluoro-2-(((2R,7aS)-2-fluorotetrahydro-1H-pyrrolizin-7a(5H)-yl)methoxy)pyrido[4,3-d]pyrimidin-4-yl)piperazin-2-yl)acetonitrile]
IC50 [1]: < 10 nM
IC50 [2]: < 10 nM

N#CC[C@H]1CN(c2nc(OC[C@@]34CCCN3C[C@H](F)C4)nc3c(F)c(-c4cccc5cccc(Cl)c45)ncc23)CCN1C(=O)/C=C/CN1C[C@@H]2C[C@H]1CO2 [Compound 180]
IC50 [1]: < 10 nM
IC50 [2]: < 10 nM

CC(F)(F)c1noc(/C=C/C(=O)N2CCN(c3nc(OCC45CCCN4CCC5)nc4c(F)c(-c5cccc6cccc(Cl)c56)ncc34)C[C@@H]2CC#N)n1 [Example 13, (S,E)-2-(4-(7-(8-chloronaphthalen-1-yl)-8-fluoro-2-((tetrahydro-1H-pyrrolizin-7a(5H)-yl)methoxy)pyrido[4,3-d]pyrimidin-4-yl)-1-(3-(3-(1,1-difluoroethyl)-1,2,4-oxadiazol-5-yl)acryloyl)piperazin-2-yl)acetonitrile]
IC50 [1]: 10 to 100 nM
IC50 [2]: 10 to 100 nM

N#CC[C@H]1CN(c2nc(OCC34CCCN3CCC4)nc3c2CCN(c2cccc4cccc(Cl)c24)C3)CCN1C(=O)/C=C/CN1CCCCC1 [Compound 170]
IC50 [1]: < 10 nM
IC50 [2]: < 10 nM

CC(F)(F)c1noc(/C=C/C(=O)N2CCN(c3nc(OC[C@@]45CCCN4C[C@H](F)C5)nc4c3CCN(c3cccc5cccc(Cl)c35)C4)C[C@@H]2CC#N)n1 [Example 12, 2-((S)-4-(7-(8-chloronaphthalen-1-yl)-2-(((2R,7aS)-2-fluorohexahydro-1H-pyrrolizin-7a-yl)methoxy)-5,6,7,8-tetrahydropyrido[3,4-d]pyrimidin-4-yl)-1-((E)-3-(3-(1,1-difluoroethyl)-1,2,4-oxadiazol-5-yl)acryloyl)piperazin-2-yl)acetonitrile]
IC50 [1]: < 10 nM
IC50 [2]: < 10 nM

CO[C@@H]1CCN(C/C=C/C(=O)N2CCN(c3nc(OC[C@@]45CCCN4C[C@H](F)C5)nc4c(F)c(-c5cccc6ccc(F)c(F)c56)ncc34)C[C@@H]2CC#N)C1 [Compound 216]
IC50 [1]: < 10 nM
IC50 [2]: < 10 nM

N#CC[C@H]1CN(c2nc(OCC34CCCN3CCC4)nc3c2CCN(c2cccc4cccc(Cl)c24)C3)CCN1C(=O)/C=C/CN1CCOCC1 [Example 11, (S,E)-2-(4-(7-(8-chloronaphthalen-1-yl)-2-((hexahydro-1H-pyrrolizin-7a-yl)methoxy)-5,6,7,8-tetrahydropyrido[3,4-d]pyrimidin-4-yl)-1-(4-morpholinobut-2-enoyl)piperazin-2-yl)acetonitrile]
IC50 [1]: < 10 nM
IC50 [2]: 10 to 100 nM

CCc1c(F)ccc2cccc(-c3ncc4c(N5CCN(C(=O)/C=C/c6ccnc(C)n6)[C@@H](CC#N)C5)nc(OC[C@@]56CCCN5C[C@H](F)C6)nc4c3F)c12 [Compound 227]
IC50 [1]: < 10 nM
IC50 [2]: < 10 nM

CN(C/C=C/C(=O)N1CCN(c2nc(OCC34CCCN3CCC4)nc3c2CCN(c2cccc4cccc(Cl)c24)C3)C[C@@H]1CC#N)CC1COC1 [Compound 318]
IC50 [1]: < 10 nM
IC50 [2]: < 10 nM

C[C@@H]1CN(C/C=C/C(=O)N2CCN(c3nc(OC[C@@]45CCCN4C[C@H](F)C5)nc4c(F)c(-c5cccc6ccc(F)c(Cl)c56)ncc34)C[C@@H]2CC#N)C[C@@H](C)O1 [Example 74, 2-((S)-4-(7-(8-chloro-7-fluoronaphthalen-1-yl)-8-fluoro-2-(((2R,7aS)-2-fluorotetrahydro-1H-pyrrolizin-7a(5H)-yl)methoxy)pyrido[4,3-d]pyrimidin-4-yl)-1-((E)-4-((2R,6R)-2,6-dimethylmorpholino)but-2-enoyl)piperazin-2-yl)acetonitrile]
IC50 [1]: < 10 nM
IC50 [2]: < 10 nM

N#CC[C@H]1CN(c2nc(OC[C@@]34CCCN3C[C@H](F)C4)nc3c(F)c(-c4cccc5cccc(F)c45)ncc23)CCN1C(=O)/C=C/CN1C[C@H]2C[C@@H]1CO2 [Compound 220]
IC50 [1]: < 10 nM
IC50 [2]: < 10 nM

Cc1nccc(/C=C/C(=O)N2CCN(c3nc(OC[C@@]45CCCN4C[C@H](F)C5)nc4c(F)c(-c5cccc(Cl)c5C5CC5)ncc34)C[C@@H]2CC#N)n1 [Compound 104, 2-((S)-4-(7-(3-chloro-2-cyclopropylphenyl)-8-fluoro-2-(((2R,7aS)-2-fluorotetrahydro-1H-pyrrolizin-7a(5H)-yl)methoxy)pyrido[4,3-d]pyrimidin-4-yl)-1-((E)-3-(2-methylpyrimidin-4-yl)acryloyl)piperazin-2-yl)acetonitrile]
IC50 [1]: < 10 nM
IC50 [2]: < 10 nM
